Assay results taken from PubChem BioAssay AID276 (DTP/NCI, 2004).
Where “and” joins values, the source holds several entries; their conditions need not be identical. Equal values may be shown once. Inconclusive results and toxic doses are left out. Rule for the calls: active = survival T/C of 150% or more; inactive = T/C below 125% in these data. Residues, ends and D or L forms follow the SMILES beside them. *: point of attachment. Trt = c1ccc(C(c2ccccc2)(c2ccccc2)*)cc1; Cbz = O=C(OCc1ccccc1)*; Bn = c1ccc(C*)cc1; βAla = NCCC(=O)O

Tested on: B6C3F1 mice, Lewis lung carcinoma iv, survival T/C
Experiment: NCI In Vivo Anticancer Drug Screen. Data for tumor model Lewis Lung Carcinoma (intravenous) in B6C3F1 mice
Conditions: endpoint: median survival time, higher = longer survival
How it was run: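 Read-out is survival, expressed as the treated-group measurement over the vehicle control-group measurement. Animals bore a transplantable tumor and were given compound.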

[1] = dose: 50.0 mg/kg/injection, schedule: Q01DX009 (ip), vehicle: Klucel (hydroxypropylcellulose) (HPC)
[2] = dose: 100.0 mg/kg/injection, schedule: Q01DX009 (ip), vehicle: Klucel (hydroxypropylcellulose) (HPC)
[3] = dose: 3.12 mg/kg/injection, schedule: Q01DX009 (ip), vehicle: saline with Tween-80
[4] = dose: 12.5 mg/kg/injection, schedule: Q01DX009 (ip), vehicle: saline with Tween-80
[5] = dose: 12.5 mg/kg/injection, schedule: Q01DX009 (ip), vehicle: saline
[6] = dose: 25.0 mg/kg/injection, schedule: Q01DX009 (ip), vehicle: saline
[7] = dose: 6.25 mg/kg/injection, schedule: Q01DX009 (ip), vehicle: saline with Tween-80
[8] = dose: 25.0 mg/kg/injection, schedule: Q01DX009 (ip), vehicle: saline with Tween-80
[9] = dose: 50.0 mg/kg/injection, schedule: Q01DX009 (ip), vehicle: saline with Tween-80
[10] = dose: 100.0 mg/kg/injection, schedule: Q01DX009 (ip), vehicle: saline with Tween-80
[11] = dose: 200.0 mg/kg/injection, schedule: Q01DX009 (ip), vehicle: saline with Tween-80
[12] = dose: 50.0 mg/kg/injection, schedule: Q01DX009 (ip), vehicle: saline
[13] = dose: 100.0 mg/kg/injection, schedule: Q01DX009 (ip), vehicle: saline
[14] = dose: 200.0 mg/kg/injection, schedule: Q01DX009 (ip), vehicle: saline

Measured: T/C

COC1CC(C)C(OC)c2cc(O)cc(c2O)NC(=O)/C(C)=C/C=C\C(C)C(OC(N)=O)/C(C)=C\C(C)C1OC (stereo not drawn)
inactive: dose: 5.0 mg/kg/injection, schedule: Q01DX009 (ip), vehicle: saline + alcohol 115 % of control | dose: 10.0 mg/kg/injection, schedule: Q01DX009 (ip), vehicle: saline + alcohol 88 % of control

CCCCCNc1ncnc2c(C)[nH]nc12
inactive: dose: 25.0 mg/kg/injection, schedule: Q01DX009 (ip), vehicle: Klucel (hydroxypropylcellulose) (HPC) 103 % of control | [1] 94 % of control | [2] 108 % of control

CCOc1cc2c(cc1C(C)c1ccc(OC)cc1)OCO2 (stereo not drawn)
inactive: dose: 12.5 mg/kg/injection, schedule: Q01DX009 (ip), vehicle: distilled water + Tween-80 + alcohol 104 % of control | dose: 12.5 mg/kg/injection, schedule: Q01DX009 (ip), vehicle: distilled water + alcohol 106 % of control | dose: 25.0 mg/kg/injection, schedule: Q01DX009 (ip), vehicle: distilled water + Tween-80 + alcohol 103 % of control | dose: 25.0 mg/kg/injection, schedule: Q01DX009 (ip), vehicle: distilled water + alcohol 104 % of control | dose: 50.0 mg/kg/injection, schedule: Q01DX009 (ip), vehicle: DMSO 102 % of control | dose: 50.0 mg/kg/injection, schedule: Q01DX009 (ip), vehicle: distilled water + Tween-80 + alcohol 103 % of control | dose: 50.0 mg/kg/injection, schedule: Q01DX009 (ip), vehicle: distilled water + alcohol 112 % of control | dose: 100.0 mg/kg/injection, schedule: Q01DX009 (ip), vehicle: distilled water + alcohol 108 % of control | dose: 200.0 mg/kg/injection, schedule: Q01DX009 (ip), vehicle: distilled water + alcohol 110 % of control

Cc1c(O)ccc(=O)n1O
inactive: dose: 16.0 mg/kg/injection, schedule: Q01DX009 (ip), vehicle: saline with Tween-80 101 % of control | dose: 32.0 mg/kg/injection, schedule: Q01DX009 (ip), vehicle: saline with Tween-80 99 % of control | dose: 64.0 mg/kg/injection, schedule: Q01DX009 (ip), vehicle: saline with Tween-80 103 % of control | dose: 128.0 mg/kg/injection, schedule: Q01DX009 (ip), vehicle: saline with Tween-80 89 % of control

COC(=O)C(CSC(c1ccccc1)(c1ccccc1)c1ccccc1)NC(=O)C(CSCc1ccccc1)NC(=O)CCNC(=O)OCc1ccccc1 (stereo not drawn) ({Cbz-βAla}-Cys(Bn)-Cys(Trt)-OMe; configuration not given here)
inactive: [1] 93 % of control | [2] 98 % of control | dose: 200.0 mg/kg/injection, schedule: Q01DX009 (ip), vehicle: Klucel (hydroxypropylcellulose) (HPC) 97 % of control | dose: 400.0 mg/kg/injection, schedule: Q01DX009 (ip), vehicle: Klucel (hydroxypropylcellulose) (HPC) 100 % of control | dose: 800.0 mg/kg/injection, schedule: Q01DX009 (ip), vehicle: Klucel (hydroxypropylcellulose) (HPC) 98 % of control

C1CC[N-]CC1.[Cl][Pt+2][Cl].[NH-]C1CC1
inactive: dose: 1.56 mg/kg/injection, schedule: Q01DX009 (ip), vehicle: water 106 % of control | dose: 3.12 mg/kg/injection, schedule: Q01DX009 (ip), vehicle: water 110 % of control | dose: 6.25 mg/kg/injection, schedule: Q01DX009 (ip), vehicle: water 107 % of control and 109 % of control | dose: 12.5 mg/kg/injection, schedule: Q01DX009 (ip), vehicle: water 102 % of control and 120 % of control

C[CH2][Sn]1([CH2]C)[O]OC(c2ccccc2)[O]1 (stereo not drawn)
inactive: dose: 0.78 mg/kg/injection, schedule: Q01DX009 (ip), vehicle: saline with Tween-80 97 % of control | dose: 1.56 mg/kg/injection, schedule: Q01DX009 (ip), vehicle: saline with Tween-80 100 % of control | [3] 100 % of control | [4] 95 % of control

CC(C)CCC(=O)c1ccoc1
inactive: dose: 0.12 mg/kg/injection, schedule: Q03HX027 (ip), vehicle: saline with Tween-80 99 % of control | dose: 0.25 mg/kg/injection, schedule: Q03HX027 (ip), vehicle: saline with Tween-80 97 % of control | dose: 0.5 mg/kg/injection, schedule: Q03HX027 (ip), vehicle: saline with Tween-80 109 % of control | dose: 1.0 mg/kg/injection, schedule: Q03HX027 (ip), vehicle: saline with Tween-80 117 % of control

COC(=O)Nc1nc2ccc(C3(c4ccc(F)cc4)OCCO3)cc2[nH]1
inactive: dose: 1.56 mg/kg/injection, schedule: Q01DX009 (ip), vehicle: saline 97 % of control | dose: 3.12 mg/kg/injection, schedule: Q01DX009 (ip), vehicle: saline 106 % of control | dose: 6.25 mg/kg/injection, schedule: Q01DX009 (ip), vehicle: saline 102 % of control | [5] 104 % of control | [6] 117 % of control

O=C(CCCN1CCC(C(O)c2ccc(F)cc2)CC1)c1ccc(F)cc1 (stereo not drawn)
inactive: [3] 102 % of control | [7] 101 % of control | [4] 105 % of control

CC[C@H](CC[C@@H](C)C1CC[C@H]2[C@@H]3CC=C4C[C@@H](OP(=O)(N5CC5)N5CC5)CC[C@]4(C)[C@H]3CC[C@]12C)C(C)C (stereo partly drawn)
inactive: [4] 100 % of control | [8] 95 % of control | [9] 97 % of control | [10] 100 % of control | [11] 95 % of control

CN=S(=O)(OCCCCCOS(=O)(=NC)c1ccc(C)cc1)c1ccc(C)cc1 (stereo not drawn)
inactive: [7] 99 % of control | [4] 99 % of control | [8] 91 % of control | [9] 94 % of control | [10] 92 % of control | [11] 96 % of control

CC(=O)NCCCCCCNC(C)=O
inactive: [6] 92 % of control and 96 % of control | [12] 90 % of control and 92 % of control | [13] 88 % of control and 106 % of control | [14] 100 % of control and 102 % of control | dose: 400.0 mg/kg/injection, schedule: Q01DX009 (ip), vehicle: saline 96 % of control and 103 % of control | dose: 800.0 mg/kg/injection, schedule: Q01DX009 (ip), vehicle: saline 102 % of control and 105 % of control

OCC(O)C(O)C(O)C(O)CO (stereo not drawn)
inactive: dose: 75.0 mg/kg/injection, schedule: Q01DX009 (ip), vehicle: saline 100 % of control | dose: 150.0 mg/kg/injection, schedule: Q01DX009 (ip), vehicle: saline 96 % of control | dose: 300.0 mg/kg/injection, schedule: Q01DX009 (ip), vehicle: saline 92 % of control | dose: 600.0 mg/kg/injection, schedule: Q01DX009 (ip), vehicle: saline 95 % of control | dose: 1200.0 mg/kg/injection, schedule: Q01DX009 (ip), vehicle: saline 98 % of control

C=CCOCC1CO1 (stereo not drawn)
inactive: [5] 105 % of control | [6] 100 % of control | [12] 99 % of control | [13] 104 % of control | [14] 115 % of control

O=S(=O)(N=N/C=C1\C=CC=CN1O)c1cccs1
inactive: [4] 111 % of control | [8] 103 % of control | [9] 103 % of control | [10] 107 % of control

FC(F)(F)c1nc2nc(Cl)c(Cl)nc2[nH]1
inactive: [7] 98 % of control | [4] 106 % of control | [8] 106 % of control | [9] 93 % of control

O=C1C(NCCO)=C(N2CC2)C(=O)C(NCCO)=C1N1CC1
inactive: dose: 0.06 mg/kg/injection, schedule: Q01DX009 (ip), vehicle: saline 103 % of control | dose: 0.12 mg/kg/injection, schedule: Q01DX009 (ip), vehicle: saline 97 % of control | dose: 0.25 mg/kg/injection, schedule: Q01DX009 (ip), vehicle: saline 106 % of control | dose: 0.5 mg/kg/injection, schedule: Q01DX009 (ip), vehicle: saline 108 % of control | dose: 1.0 mg/kg/injection, schedule: Q01DX009 (ip), vehicle: saline 106 % of control
